Experiments:
Assay type in all cases: functional, cell-based
[1] = system: HeLa; assay: Antiviral activity against HIV1 Y188L mutant in HeLa-JC53 cells
[2] = system: HeLa; assay: Antiviral activity against HIV1 K103N-Y181C mutant in HeLa-JC53 cells
[3] = system: HeLa; assay: Antiviral activity against wild type HIV1 in HeLa-JC53 cells; details: Homo sapiens
[4] = system: HeLa; assay: Cytotoxicity against human HeLa-JC53 cells

SMILES	EC50 [1]	EC50 [2]	EC50 [3]	Activity [4]
O=C1Nc2ccc(Cl)cc2[C@@](C#CC2CC2)(C(F)(F)F)O1 [EFAVIRENZ]	73 nM	11 nM	0.4 nM	
Cc1ccc(-n2c(C)nnc2SCC(=O)Nc2ccccc2Br)c2ccccc12	69 nM	14 nM	0.6 nM	
Cc1ccc(NC(=O)CSc2nnc(C)n2-c2c(C)ccc3ccccc23)c(Cl)c1	200 nM	60 nM	1 nM	
Cc1ccc(NC(=O)CSc2nnc(C)n2-c2cccc3ccccc23)c(Cl)c1	590 nM	54 nM	4 nM	
Cc1ccc2c(C)cc(C)c(-n3c(SCC(=O)Nc4ccc(S(N)(=O)=O)cc4Cl)nnc3C(F)(F)F)c2n1	4 nM		1 nM	Not toxic
Cc1ccc(NC(=O)CSc2nnc(C)n2-c2ccc(Cl)c3ccccc23)c(Cl)c1	320 nM	190 nM	1 nM	
CN(C)c1ccc(-n2c(SCC(=O)Nc3ccc(S(N)(=O)=O)cc3Cl)nnc2C(F)(F)F)c2ccccc12	7 nM		2 nM	Not toxic
CCc1ccc(-n2c(C)nnc2SCC(=O)Nc2ccccc2Br)c2ccccc12	58 nM	22 nM	0.5 nM	
Cc1cc(C)c2ccccc2c1-n1c(C)nnc1SCC(=O)Nc1ccccc1Br	89 nM	70 nM	1 nM	
Cc1ccc2c(C)ccc(-n3c(C)nnc3SCC(=O)Nc3ccc(S(N)(=O)=O)cc3Cl)c2c1	6 nM		0.6 nM	Not toxic
CCc1ccc(-n2c(C)nnc2SCC(=O)Nc2ccc(C)cc2Cl)cc1		60 nM	0.2 nM	
Cc1ccc(-n2c(SCC(=O)Nc3ccc(C)cc3Br)nnc2C(F)(F)F)cc1		1100 nM	0.5 nM	
Cc1ccc(-n2c(C)nnc2SCC(=O)Nc2ccc(C)cc2Cl)cc1		170 nM	0.9 nM	
Cc1ccc(NC(=O)CSc2nnc(C)n2-c2ccc(C(F)(F)F)cc2)c(Cl)c1		230 nM	19 nM	
Cc1cc(-n2c(C)nnc2SCC(=O)Nc2ccccc2Br)c2ccccc2c1C	97 nM	31 nM	0.5 nM	
Cc1ccc(NC(=O)CSc2nnc(C)n2-c2ccc(C)c3ccccc23)c(Cl)c1	100 nM	16 nM	1 nM	
COc1ccc(-n2c(C)nnc2SCC(=O)Nc2ccccc2Br)c2ccccc12	460 nM	93 nM	0.7 nM	
Cc1ccc(NC(=O)CSc2nnc(C)n2-c2ccccc2Cl)c(Cl)c1		100 nM	8 nM	
Cc1ccc(NC(=O)CSc2nnc(C)n2-c2ccccc2)c(Br)c1	> 10000 nM	1300 nM	100 nM	
Cc1ccc(-n2c(C)nnc2SCC(=O)Nc2ccc(OC(F)(F)F)cc2Br)cc1		> 10000 nM	58 nM	
CCc1ccc(-n2c(C)nnc2SCC(=O)Nc2ccc(C)cc2Cl)c2ccccc12	110 nM	32 nM	1 nM	
Cc1ccc(-n2c(C)nnc2SCC(=O)Nc2ccc(Cl)cc2)cc1		> 10000 nM	400 nM	
Cc1ccc2ccccc2c1-n1c(C)nnc1SCC(=O)Nc1ccccc1Br	210 nM	65 nM	1 nM	
Cc1ccc(-n2c(C)nnc2SCC(=O)Nc2cccc(Cl)c2Cl)cc1		110 nM	0.1 nM	
Cc1nnc(SCC(=O)Nc2ccccc2Br)n1-c1ccc(Cl)c2ccccc12	200 nM	130 nM	0.8 nM	
Cc1cc(C)c2ccccc2c1-n1c(C)nnc1SCC(=O)Nc1ccc(S(N)(=O)=O)cc1Cl	4 nM		0.1 nM	Not toxic
Cc1ccc(-n2c(C)nnc2SCC(=O)Nc2cccc(C)c2C)cc1		> 10000 nM	60 nM	
COC(=O)c1ccc(NC(=O)CSc2nnc(C)n2-c2ccc(C)cc2)c(Cl)c1		120 nM	0.4 nM	

Source: ChEMBL document CHEMBL1149511, “Tri-substituted triazoles as potent non-nucleoside inhibitors of the HIV-1 reverse transcriptase” (Bioorg Med Chem Lett, 2006)
